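Step 1: Grow cells in 96-well plates. Step 2: Expose to compound for 48 hours at 5 concentrations. Step 3: Interpolate endpoints linearly; if unreached, use highest concentration. GI50 is the concentration that inhibits growth by half.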 Calls of active or inactive are those of the source. Cut-off read from the data, not from the text of the source: active = GI50 up to about 1.1 µM and inactive = higher.
What was measured:
Experiment in all cases: NCI-60 cell line screen, 48 h
UACC-62 = tested on: UACC-62
SW-620 = tested on: SW-620
SK-OV-3 = tested on: SK-OV-3
NCI-H522 = tested on: NCI-H522
MDA-N = tested on: MDA-N
OVCAR-5 = tested on: OVCAR-5
NCI-H23 = tested on: NCI-H23
A549 = tested on: A549
U-251 = tested on: U-251
HOP-62 = tested on: HOP-62
SNB-75 = tested on: SNB-75
HT-29 = tested on: HT-29
NCI-H460 = tested on: NCI-H460
Malme-3M = tested on: Malme-3M
OVCAR-4 = tested on: OVCAR-4
786-0 = tested on: 786-0
LOX IMVI = tested on: LOX IMVI
IGROV-1 = tested on: IGROV-1
SN12C = tested on: SN12C

Measured: GI50

CCCC(=O)OCC1(CO)C/C(=C/CC(C(C)C)C(C)C)C(=O)O1 (centres undefined)
inactive: UACC-62 > 100 µM | SW-620 > 100 µM | SK-OV-3 > 100 µM | NCI-H522 38.7 µM | MDA-N > 100 µM | OVCAR-5 > 100 µM | NCI-H23 > 100 µM | A549 > 100 µM | U-251 > 100 µM | HOP-62 > 100 µM | SNB-75 > 100 µM | HT-29 > 100 µM | NCI-H460 > 100 µM | Malme-3M 64.4 µM | OVCAR-4 > 100 µM | 786-0 > 100 µM | LOX IMVI 17.4 µM | IGROV-1 > 100 µM | SN12C > 100 µM

COc1ccc(C(=O)N2CCN(c3ccc4c(c3)OCC(=O)N4)CC2)cc1
inactive: UACC-62 > 100 µM | SW-620 > 100 µM | SK-OV-3 > 100 µM | NCI-H522 95.9 µM | MDA-N > 100 µM | OVCAR-5 > 100 µM | NCI-H23 > 100 µM | A549 > 100 µM | U-251 > 100 µM | HOP-62 > 100 µM | SNB-75 > 100 µM | HT-29 > 100 µM | NCI-H460 > 100 µM | Malme-3M > 100 µM | OVCAR-4 > 100 µM | 786-0 > 100 µM | LOX IMVI > 100 µM | IGROV-1 > 100 µM | SN12C > 100 µM

CC1(C)OC(C(C)(C)O)C(C(C)(C)O)O1 (centres undefined)
inactive: UACC-62 > 100 µM | SW-620 > 100 µM | SK-OV-3 > 100 µM | NCI-H522 > 100 µM | MDA-N > 100 µM | OVCAR-5 > 100 µM | NCI-H23 > 100 µM | A549 > 100 µM | U-251 > 100 µM | HOP-62 > 100 µM | SNB-75 > 100 µM | HT-29 > 100 µM | NCI-H460 > 100 µM | Malme-3M > 100 µM | OVCAR-4 > 100 µM | 786-0 > 100 µM | LOX IMVI > 100 µM | IGROV-1 > 100 µM | SN12C > 100 µM

CO[C@]12CC(=O)C3(C(C[C@H]4CC5CCC6=CC(=O)CC[C@]6(OC(C)=O)C5C[C@@]43C)C1)C1C[C@H]3[C@@H]4CCC5=CC(=O)CC[C@]5(OC(C)=O)[C@H]4CC[C@]3(C)C12 (some centres undefined)
inactive: UACC-62 > 100 µM | SW-620 > 100 µM | SK-OV-3 > 100 µM | NCI-H522 > 100 µM | MDA-N 58.2 µM | OVCAR-5 > 100 µM | NCI-H23 > 100 µM | A549 > 100 µM | U-251 > 100 µM | HOP-62 > 100 µM | SNB-75 > 100 µM | HT-29 > 100 µM | NCI-H460 > 100 µM | Malme-3M > 100 µM | OVCAR-4 > 100 µM | 786-0 > 100 µM | LOX IMVI > 100 µM | IGROV-1 > 100 µM | SN12C > 100 µM

Oc1ccc(Cl)cc1-c1cc(-c2ccccc2)nc(S)n1
inactive: SW-620 > 100 µM | SK-OV-3 29.5 µM | NCI-H522 > 100 µM | MDA-N > 100 µM | OVCAR-5 > 100 µM | NCI-H23 88.5 µM | A549 > 100 µM | U-251 17.4 µM | HOP-62 22.6 µM | SNB-75 21.5 µM | HT-29 > 100 µM | NCI-H460 > 100 µM | Malme-3M > 100 µM | OVCAR-4 > 100 µM | 786-0 26.3 µM | LOX IMVI > 100 µM | IGROV-1 > 100 µM | SN12C 93.1 µM

NC1=Nc2ccccc2Sc2nccn21
inactive: UACC-62 28.2 µM | SW-620 32.3 µM | SK-OV-3 > 100 µM | NCI-H522 19.3 µM | MDA-N 23 µM | OVCAR-5 48.8 µM | NCI-H23 23.9 µM | A549 41.7 µM | U-251 32.8 µM | HOP-62 24.4 µM | SNB-75 17.9 µM | HT-29 23 µM | NCI-H460 31 µM | Malme-3M 17.2 µM | OVCAR-4 30.6 µM | 786-0 24.6 µM | LOX IMVI 17.8 µM | IGROV-1 23.9 µM | SN12C 36.3 µM

CC(C)(O)/C=C\P(C)(=O)c1ccccc1 (centres undefined)
inactive: UACC-62 > 100 µM | SW-620 > 100 µM | SK-OV-3 > 100 µM | NCI-H522 > 100 µM | MDA-N > 100 µM | OVCAR-5 > 100 µM | NCI-H23 > 100 µM | A549 > 100 µM | U-251 > 100 µM | HOP-62 > 100 µM | SNB-75 > 100 µM | HT-29 > 100 µM | NCI-H460 > 100 µM | Malme-3M > 100 µM | OVCAR-4 > 100 µM | 786-0 > 100 µM | LOX IMVI > 100 µM | IGROV-1 > 100 µM | SN12C > 100 µM

C[C@@H]1C(=O)C[C@H]2C(C)(C)CCC[C@]2(C)[C@@]1(O)CCc1ccoc1
inactive: UACC-62 > 100 µM | SW-620 > 100 µM | SK-OV-3 > 100 µM | NCI-H522 66.4 µM | MDA-N > 100 µM | OVCAR-5 > 100 µM | NCI-H23 > 100 µM | A549 > 100 µM | U-251 > 100 µM | HOP-62 > 100 µM | SNB-75 > 100 µM | HT-29 > 100 µM | NCI-H460 > 100 µM | Malme-3M > 100 µM | OVCAR-4 > 100 µM | 786-0 > 100 µM | LOX IMVI > 100 µM | IGROV-1 57.4 µM | SN12C > 100 µM

COc1cc(Br)cc2nc(-c3cccs3)oc12
inactive: UACC-62 > 100 µM | SW-620 > 100 µM | SK-OV-3 > 90.6 µM | NCI-H522 99.8 µM | MDA-N > 100 µM | OVCAR-5 > 100 µM | NCI-H23 > 68.1 µM | A549 > 100 µM | U-251 42.1 µM | HOP-62 24.5 µM | SNB-75 > 51.3 µM | HT-29 > 100 µM | NCI-H460 > 100 µM | Malme-3M > 100 µM | OVCAR-4 > 26.9 µM | 786-0 > 56 µM | LOX IMVI > 100 µM | IGROV-1 > 43.2 µM | SN12C > 100 µM

CCOC(=O)C(NNS(=O)(=O)c1ccc(C)cc1)S(=O)(=O)C(F)(F)C(F)(F)C(F)(F)C(F)(F)F (centres undefined)
inactive: UACC-62 > 100 µM | SW-620 > 100 µM | SK-OV-3 > 100 µM | NCI-H522 > 100 µM | MDA-N > 100 µM | OVCAR-5 > 100 µM | NCI-H23 > 100 µM | A549 > 100 µM | U-251 88.9 µM | HOP-62 > 100 µM | SNB-75 > 100 µM | HT-29 > 100 µM | NCI-H460 > 100 µM | Malme-3M > 100 µM | OVCAR-4 > 100 µM | 786-0 > 100 µM | LOX IMVI > 100 µM | IGROV-1 > 100 µM | SN12C > 100 µM

From ChEMBL document CHEMBL1201862, “PubChem BioAssay data set” (2004)
